Laboratory results published in patent US10138227B2, “Heteroaryl substituted pyridines and methods of use” (AbbVie S.à.r.l., priority 2016, dated 2018).

Target: T1, CFTR ΔF508 mutant (Homo sapiens, UniProt P13569, DEL508-508)
T1 construct: expressed in transfected cells; host or cells: CFBE41o- cells transduced with adenoviral vectors
Experiment: YFP-halide influx assay for the CFTR-ΔF508 mutation
Type: cell-based
Settings: CFBE41o- cells expressing CFTR ΔF508 and YFP reporter, forskolin 10.67 μM; for EC50: (1-F/F0) vs concentration
Source text: The YFP halide influx assay measured the functionality of the cystic fibrosis Transmembrane Conductance regulator (CFTR) channels in the cystic fibrosis bronchial epithelium cell line CFBE41o-. The assay was used to evaluate the capacity of compounds to increase the open probability of existing CFTR channels in the membrane. It makes use of the observation that the yellow fluorescent protein (YFP) variant YFP H148Q, I152L, F47L has its fluorescence substantially quenched by halide ions like Cl^− and I^− (Galietta, L. J. V., Haggie, P. M., Verkman, A. S., 2001. Green fluorescent protein-based halide indicators with improved chloride and iodide affinities. FEBS Lett. 499, 220-224. doi:10.1016/S0014-5793(01)02561-3; Nagai, T., Ibata, K., Park, E. S., Kubota, M., Mikoshiba, K., Miyawaki, A., 2002. A variant of yellow fluorescent protein with fast and efficient maturation for cell-biological applications. Nat. Biotechnol. 20, 87-90. doi:10.1038/nbt0102-87).
For this purpose, CFBE410-cells were seeded in 384 well plates (3000 CFBE cells/well). One day after seeding, the CFBE cells were transduced with adenoviral vectors that direct the expression of the CFTR ΔF508 mutant and of the YFP reporter. Cells were incubated at 27° C., 5% CO2 for 24 hours so as to allow for the proper folding and migration to the membrane of the CFTR channel or treated with a CFTR modulator during 24 hours at 37° C.
The I-induced quenching of fluorescence was recorded on an immediately after injection of iodide for 2 minutes on an FDSS/μCell (Hamamatsu). The capacity of a compound to increase the channel opening was directly correlated with the decrease in fluorescence, and was expressed as (1-(fluorescence after 36 seconds (F)/fluorescence before injection (F0))) and an EC50 was derived from a (1-F/F0) vs compound concentration plot.

T1 sequence (P13569 with tags, fused parts or gaps DEL508-508): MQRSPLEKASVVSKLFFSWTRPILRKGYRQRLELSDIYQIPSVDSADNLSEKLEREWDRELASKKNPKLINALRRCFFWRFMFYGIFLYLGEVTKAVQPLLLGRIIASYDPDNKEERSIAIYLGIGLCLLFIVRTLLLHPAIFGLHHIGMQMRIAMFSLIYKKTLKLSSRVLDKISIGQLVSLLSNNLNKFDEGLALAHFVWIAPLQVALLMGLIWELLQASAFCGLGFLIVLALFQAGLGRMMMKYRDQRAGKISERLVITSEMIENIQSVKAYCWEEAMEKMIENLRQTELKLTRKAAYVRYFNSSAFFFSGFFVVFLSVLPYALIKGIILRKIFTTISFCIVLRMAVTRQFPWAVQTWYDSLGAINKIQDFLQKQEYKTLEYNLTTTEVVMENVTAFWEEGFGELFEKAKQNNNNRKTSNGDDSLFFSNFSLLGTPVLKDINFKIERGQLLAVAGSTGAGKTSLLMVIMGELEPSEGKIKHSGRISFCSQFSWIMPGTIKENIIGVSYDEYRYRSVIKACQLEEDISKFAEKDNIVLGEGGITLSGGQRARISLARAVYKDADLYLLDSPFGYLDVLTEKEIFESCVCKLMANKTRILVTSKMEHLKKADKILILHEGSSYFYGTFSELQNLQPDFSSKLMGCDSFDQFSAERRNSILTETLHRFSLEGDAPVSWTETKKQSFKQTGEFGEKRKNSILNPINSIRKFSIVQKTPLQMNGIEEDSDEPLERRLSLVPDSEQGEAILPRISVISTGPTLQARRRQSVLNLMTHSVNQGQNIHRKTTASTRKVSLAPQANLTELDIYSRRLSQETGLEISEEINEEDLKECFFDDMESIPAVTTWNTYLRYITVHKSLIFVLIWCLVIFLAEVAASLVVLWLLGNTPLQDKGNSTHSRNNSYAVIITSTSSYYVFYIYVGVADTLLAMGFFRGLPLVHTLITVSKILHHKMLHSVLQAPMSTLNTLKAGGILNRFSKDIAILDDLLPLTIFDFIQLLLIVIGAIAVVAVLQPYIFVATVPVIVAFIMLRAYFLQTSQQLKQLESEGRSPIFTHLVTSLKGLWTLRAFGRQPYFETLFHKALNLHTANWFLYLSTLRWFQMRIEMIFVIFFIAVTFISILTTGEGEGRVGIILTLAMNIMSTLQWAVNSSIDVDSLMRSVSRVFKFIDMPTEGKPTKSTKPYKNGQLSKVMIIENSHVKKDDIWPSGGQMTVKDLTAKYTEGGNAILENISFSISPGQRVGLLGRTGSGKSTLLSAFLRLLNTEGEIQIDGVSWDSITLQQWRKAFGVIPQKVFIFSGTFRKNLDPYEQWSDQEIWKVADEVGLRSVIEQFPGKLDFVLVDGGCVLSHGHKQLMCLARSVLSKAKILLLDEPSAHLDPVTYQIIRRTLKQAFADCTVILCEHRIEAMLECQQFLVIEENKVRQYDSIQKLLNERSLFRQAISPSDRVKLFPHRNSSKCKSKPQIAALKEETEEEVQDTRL

SMILES	% Activation	EC50
CO[C@H](C)c1nnc(-c2ncc(S(=O)(=O)c3ccc(OC(F)(F)F)cc3)cc2N)o1 [Compound 34, 2-{5-[(1R)-1-methoxyethyl]-1,3,4-oxadiazol-2-yl}-5-[4-(trifluoromethoxy)benzene-1-sulfonyl]pyridin-3-amine]	102.19%	21.3 nM
Nc1cc(S(=O)(=O)c2ccc(OC(F)(F)F)cc2)cnc1-c1nnc(COC2CCOC2)s1 (stereo not shown) [Compound 29, 2-(5-{[(oxolan-3-yl)oxy]methyl}-1,3,4-thiadiazol-2-yl)-5-[4-(trifluoromethoxy)benzene-1-sulfonyl]pyridin-3-amine]	102.9%	16 nM
CO[C@H](C)c1nnc(-c2ncc(S(=O)(=O)c3ccc(OC(F)(F)F)cc3)cc2N)s1 [Compound 21, 2-{5-[(1R)-1-methoxyethyl]-1,3,4-thiadiazol-2-yl}-5-[4-(trifluoromethoxy)benzene-1-sulfonyl]pyridin-3-amine]	109.42%	8.54 nM
Nc1cc(S(=O)(=O)c2ccc(OC(F)(F)F)cc2)cnc1-c1nnc(CNC(=S)C2CC2)s1 [Compound 18, N-[(5-{3-amino-5-[4-(trifluoromethoxy)benzene-1-sulfonyl]pyridin-2-yl}-1,3,4-thiadiazol-2-yl)methyl]cyclopropanecarbothioamide]	106.2%	9.09 nM
Nc1cc(S(=O)(=O)c2ccc(OC(F)(F)F)cc2)c(Br)nc1-c1nnc(CO)o1 [Compound 63, (5-{3-amino-6-bromo-5-[4-(trifluoromethoxy)benzene-1-sulfonyl]pyridin-2-yl}-1,3,4-oxadiazol-2-yl)methanol]	109.95%	< 0.39 nM
COCCOCc1nnc(-c2ncc(S(=O)(=O)c3ccc(OC(F)(F)F)cc3)cc2N)o1 [Compound 33, 2-{5-[(2-methoxyethoxy)methyl]-1,3,4-oxadiazol-2-yl}-5-[4-(trifluoromethoxy)benzene-1-sulfonyl]pyridin-3-amine]	103.5%	39.8 nM
Nc1cc(S(=O)(=O)c2ccc(OC(F)(F)F)cc2)cnc1-c1nnc([C@@H](O)c2ccccc2)o1 [Compound 45, (S)-(5-{3-amino-5-[4-(trifluoromethoxy)benzene-1-sulfonyl]pyridin-2-yl}-1,3,4-oxadiazol-2-yl)(phenyl)methanol]	109.25%	1.13 nM
Nc1cc(S(=O)(=O)c2ccc(OC(F)(F)F)cc2)cnc1-c1nnc(COc2cccnc2)s1 [Compound 27, 2-(5-{[(pyridin-3-yl)oxy]methyl}-1,3,4-thiadiazol-2-yl)-5-[4-(trifluoromethoxy)benzene-1-sulfonyl]pyridin-3-amine]	96.45%	151 nM
Nc1cc(S(=O)(=O)c2ccc(OC(F)(F)F)cc2)cnc1-c1nnc(COC(F)F)o1 [Compound 39, 2-{5-[(difluoromethoxy)methyl]-1,3,4-oxadiazol-2-yl}-5-[4-(trifluoromethoxy)benzene-1-sulfonyl]pyridin-3-amine]	119.45%	9.88 nM
Nc1c(-c2nnc(CO)o2)ncc(S(=O)(=O)c2ccc(OC(F)(F)F)cc2)c1Cl [Compound 57, (5-{3-amino-4-chloro-5-[4-(trifluoromethoxy)benzene-1-sulfonyl]pyridin-2-yl}-1,3,4-oxadiazol-2-yl)methanol]	93.64%	2.41 nM
CCOCc1nnc(-c2ncc(S(=O)(=O)c3ccc(OC(F)(F)F)cc3)cc2N)s1 [Compound 25, 2-[5-(ethoxymethyl)-1,3,4-thiadiazol-2-yl]-5-[4-(trifluoromethoxy)benzene-1-sulfonyl]pyridin-3-amine]	104.42%	4.4 nM
CN(Cc1ccccc1)S(=O)(=O)c1cnc(-c2nnc(CO)o2)c(N)c1 [Compound 60, 5-amino-N-benzyl-6-[5-(hydroxymethyl)-1,3,4-oxadiazol-2-yl]-N-methylpyridine-3-sulfonamide]	122.9%	15.3 nM
Nc1cc(S(=O)(=O)c2ccc(OC(F)(F)F)cc2)cnc1-c1nnc(COC2CCCC2)o1 [Compound 14, 2-{5-[(cyclopentyloxy)methyl]-1,3,4-oxadiazol-2-yl}-5-[4-(trifluoromethoxy)benzene-1-sulfonyl]pyridin-3-amine]	116.8%	67.9 nM
Nc1cc(S(=O)(=O)c2ccc(OC(F)(F)F)cc2)cnc1-c1nc(C2CCOCC2)no1 [Compound 48, 2-[3-(oxan-4-yl)-1,2,4-oxadiazol-5-yl]-5-[4-(trifluoromethoxy)benzene-1-sulfonyl]pyridin-3-amine]	6.28%	> 4990 nM
Nc1cc(S(=O)(=O)c2ccc(OC(F)(F)F)cc2)cnc1-c1nnc(COc2cccnc2)o1 [Compound 38, 2-(5-{[(pyridin-3-yl)oxy]methyl}-1,3,4-oxadiazol-2-yl)-5-[4-(trifluoromethoxy)benzene-1-sulfonyl]pyridin-3-amine]	109.05%	224 nM
CO[C@@H](c1ccccc1)c1nnc(-c2ncc(S(=O)(=O)c3ccc(OC(F)(F)F)cc3)cc2N)o1 [Compound 11, 2-{5-[(S)-methoxy(phenyl)methyl]-1,3,4-oxadiazol-2-yl}-5-[4-(trifluoromethoxy)benzene-1-sulfonyl]pyridin-3-amine]	109.82%	35.1 nM
COC(C)c1noc(-c2ncc(S(=O)(=O)c3ccc(OC(F)(F)F)cc3)cc2N)n1 (stereo not shown) [Compound 47, 2-[3-(1-methoxyethyl)-1,2,4-oxadiazol-5-yl]-5-[4-(trifluoromethoxy)benzene-1-sulfonyl]pyridin-3-amine]	59.4%	> 1660 nM
CC(C)(O)c1nnc(-c2ncc(S(=O)(=O)c3ccc(OC(F)(F)F)cc3)cc2N)o1 [Compound 43, 2-(5-{3-amino-5-[4-(trifluoromethoxy)benzene-1-sulfonyl]pyridin-2-yl}-1,3,4-oxadiazol-2-yl)propan-2-ol]	110.8%	< 0.77 nM
Nc1cc(S(=O)(=O)c2ccc(OC(F)(F)F)cc2)c(Cl)nc1-c1nnc(CO)o1 [Compound 64, (5-{3-amino-6-chloro-5-[4-(trifluoromethoxy)benzene-1-sulfonyl]pyridin-2-yl}-1,3,4-oxadiazol-2-yl)methanol]	122%	< 0.46 nM
Nc1cc(S(=O)(=O)c2ccc(OC(F)(F)F)cc2)cnc1-c1nnc(COc2ccccc2)o1 [Compound 13, 2-[5-(phenoxymethyl)-1,3,4-oxadiazol-2-yl]-5-[4-(trifluoromethoxy)benzene-1-sulfonyl]pyridin-3-amine]	100.57%	327 nM
COC(C)c1nnc(-c2ncc(S(=O)(=O)c3ccc(OC(F)(F)F)cc3)cc2N)s1 (stereo not shown) [Compound 22, 2-[5-(1-methoxyethyl)-1,3,4-thiadiazol-2-yl]-5-[4-(trifluoromethoxy)benzene-1-sulfonyl]pyridin-3-amine]	112.9%	15.2 nM
Nc1cc(S(=O)(=O)c2ccc(OC(F)(F)F)cc2)cnc1-c1nnc(C2CCCCC2)o1 [Compound 10, 2-(5-cyclohexyl-1,3,4-oxadiazol-2-yl)-5-[4-(trifluoromethoxy)benzene-1-sulfonyl]pyridin-3-amine]	106.5%	14.9 nM
Nc1cc(S(=O)(=O)c2ccc(OC(F)(F)F)cc2)cnc1-c1nnc(C[C@H]2CCCO2)o1 [Compound 41, 2-(5-{[(2R)-oxolan-2-yl]methyl}-1,3,4-oxadiazol-2-yl)-5-[4-(trifluoromethoxy)benzene-1-sulfonyl]pyridin-3-amine]	96.97%	41.3 nM
Nc1cc(S(=O)(=O)c2ccc(OC(F)(F)F)cc2)cnc1-c1nnc(COC(F)(F)F)o1 [Compound 15, 5-[4-(trifluoromethoxy)benzene-1-sulfonyl]-2-{5-[(trifluoromethoxy)methyl]-1,3,4-oxadiazol-2-yl}pyridin-3-amine]	113.65%	6.94 nM
CCOCc1nnc(-c2ncc(S(=O)(=O)c3ccc(OC(F)(F)F)cc3)cc2N)o1 [Compound 36, 2-[5-(ethoxymethyl)-1,3,4-oxadiazol-2-yl]-5-[4-(trifluoromethoxy)benzene-1-sulfonyl]pyridin-3-amine]	102.93%	12.3 nM
Nc1cc(S(=O)(=O)c2ccc(OC(F)(F)F)cc2)cnc1-c1nc(C2CC2)no1 [Compound 52, 2-(3-cyclopropyl-1,2,4-oxadiazol-5-yl)-5-[4-(trifluoromethoxy)benzene-1-sulfonyl]pyridin-3-amine]	3.42%	> 4990 nM
